Patent US9226500B2, “Pesticidal compositions and processes related thereto” (Dow AgroSciences LLC, priority 2012, dated 2016)

Tested on: Beet Armyworm (Spodoptera exigua)
Assay: Bioassay on Beet Armyworm (BAW), 128-well diet tray assay
Assay type: in vivo
Details: Table 3, Assays Results Part 1
Method: Certain molecules disclosed in this document were tested against BAW, CEW and CL using procedures described in the following examples. In the reporting of the results, the “BAW & CEW & CL Rating Table” was used (See Table Section).
Bioassays on BAW (Spodoptera exigua)
Bioassays on BAW were conducted using a 128-well diet tray assay. One to five second instar BAW larvae were placed in each well (3 mL) of the diet tray that had been previously filled with 1 mL of artificial diet to which 50 μg/cm^2 of the test compound (dissolved in 50 μL of 90:10 acetone-water mixture) had been applied (to each of eight wells) and then allowed to dry. Trays were covered with a clear self-adhesive cover, and held at 25° C., 14:10 light-dark for five to seven days. Percent mortality was recorded for the larvae in each well; activity in the eight wells was then averaged. The results are indicated in the tables entitled “Table 3: Assay Results Part 1” and “Table 4: Assay Results Part 2” (See Table Section).

Structure (SMILES) | BAW Rating
COc1cc(/C=C/C(c2cc(Cl)c(F)c(Cl)c2)C(F)(F)F)ccc1C(=O)NC1CSC1 (stereo not drawn) [AC71] | A (50-100)
CCc1cc(/C=C/C(c2cc(Cl)c(F)c(Cl)c2)C(F)(F)F)ccc1C(=O)NCc1ccc(Cl)nc1 (stereo not drawn) [AC72] | A (50-100)
O=C(NCc1ccc(C(F)(F)F)nc1)c1ccc(/C=C/C(c2cc(Cl)c(Cl)c(Cl)c2)C(F)(F)F)cc1Br (stereo not drawn) [AC75] | A (50-100)
Cc1cc(/C=C/C(c2cc(Cl)c(F)c(Cl)c2)C(F)(F)F)ccc1C(=O)NCc1cc(Cl)ccn1 (stereo not drawn) [AC77] | A (50-100)
Cc1cc(/C=C/C(c2cc(Cl)c(Cl)c(Cl)c2)C(F)(F)F)ccc1C(=O)NCC(=O)NCC(F)(F)F (stereo not drawn) [AC78] | A (50-100)
O=C(CNC(=O)c1ccc(/C=C/C(c2cc(Cl)c(F)c(Cl)c2)C(F)(F)F)cc1Br)NCC(F)(F)F (stereo not drawn) [AC79, (E)-2-Bromo-4-(3-(3,5-dichloro-4-fluorophenyl)-4,4,4-trifluorobut-1-en-1-yl)-N-(2-oxo-2-((2,2,2-trifluoroethyl)amino)ethyl)benzamide] | A (50-100)
CCc1cc(/C=C/C(c2cc(Cl)c(F)c(Cl)c2)C(F)(F)F)ccc1C(=O)NCC(=O)NCC(F)(F)F (stereo not drawn) [AC80] | A (50-100)
Cc1cc(/C=C/C(c2cc(Cl)cc(Cl)c2)C(F)(F)F)ccc1C(=O)NCC(=O)NC1CS(=O)(=O)C1 (stereo not drawn) [AC81] | A (50-100)
O=C(NC1CS(=O)(=O)C1)c1ccc(/C=C/C(c2cc(Cl)cc(Cl)c2)C(F)(F)F)cc1F (stereo not drawn) [AC83, (E)-4-(3-(3,5-Dichlorophenyl)-4,4,4-trifluorobut-1-en-1-yl)-N-(1,1-dioxidothietan-3-yl)-2-fluorobenzamide] | A (50-100)
O=C(NC1CS(=O)(=O)C1)c1ccc(/C=C/C(c2cc(Cl)c(F)c(Cl)c2)C(F)(F)F)cc1F (stereo not drawn) [AC84] | A (50-100)
COc1cc(/C=C/C(c2cc(Cl)c(F)c(Cl)c2)C(F)(F)F)ccc1C(=O)NC1CS(=O)(=O)C1 (stereo not drawn) [AC85] | A (50-100)
CCc1cc(/C=C/C(c2cc(Cl)c(F)c(Cl)c2)C(F)(F)F)ccc1C(=O)NC1CS(=O)(=O)C1 (stereo not drawn) [AC86] | A (50-100)
O=C(NC1C[S+]([O-])C1)c1ccc(/C=C/C(c2cc(Cl)c(F)c(Cl)c2)C(F)(F)F)cc1F (stereo not drawn) [AC87] | A (50-100)
Cc1cc(/C=C/C(c2cc(Cl)cc(Cl)c2)C(F)(F)F)ccc1C(=O)NCc1nnc(C2CC2)o1 (stereo not drawn) [AC89, (E)-N-((5-Cyclopropyl-1,3,4-oxadiazol-2-yl)methyl)-4-(3-(3,5-dichlorophenyl)-4,4,4-trifluorobut-1-en-1-yl)-2-methylbenzamide] | A (50-100)
FC(F)(F)CNC(=S)CNC(=S)c1ccc(/C=C/C(c2cc(Cl)c(Cl)c(Cl)c2)C(F)(F)F)cc1Br (stereo not drawn) [AC90, (E)-2-Bromo-N-(2-thioxo-2-((2,2,2-trifluoroethyl)amino)ethyl)-4-(4,4,4-trifluoro-3-(3,4,5-trichlorophenyl)but-1-en-1-yl)benzothioamide] | A (50-100)
O=C(CNC(=S)c1ccc(/C=C/C(c2cc(Cl)c(Cl)c(Cl)c2)C(F)(F)F)cc1Br)NCC(F)(F)F (stereo not drawn) [AC91, (E)-2-(2-Bromo-4-(4,4,4-trifluoro-3-(3,4,5-trichlorophenyl)but-1-en-1-yl)phenylthioamido)-N-(2,2,2-trifluoroethyl)acetamide] | A (50-100)
Cc1cc(/C=C\C(c2cc(Cl)cc(Cl)c2)C(F)(F)F)ccc1C(=O)NCC(=O)NC1CC1 (stereo not drawn) [AC93] | A (50-100)
O=C(CNC(=O)c1ccc(/C=C\C(c2cc(Cl)c(Cl)c(Cl)c2)C(F)(F)F)cc1Br)NCC(F)(F)F (stereo not drawn) [AC95, (Z)-2-Bromo-N-(2-oxo-2-((2,2,2-trifluoroethyl)amino)ethyl)-4-(4,4,4-trifluoro-3-(3,4,5-trichlorophenyl)but-1-en-1-yl)benzamide] | A (50-100)

Structure (SMILES) | BAW Rating
O=C(CNC(=O)c1ccc(/C=C/C(c2cc(Cl)c(F)c(Cl)c2)C(F)(F)F)cc1[N+](=O)[O-])NCC(F)(F)F (stereo not drawn) [AC98] | A (50-100)
O=C(CNC(=O)c1ccc(/C=C/C(c2ccc(F)c(Cl)c2)C(F)(F)F)cc1Br)NCC(F)(F)F (stereo not drawn) [AC99] | A (50-100)
CC(=O)N1CCC(NC(=O)c2ccc(/C=C/C(c3cc(Cl)c(Cl)c(Cl)c3)C(F)(F)F)cc2Br)CC1 (stereo not drawn) [AC103, (E)-N-(1-Acetylpiperidin-4-yl)-2-bromo-4-(4,4,4-trifluoro-3-(3,4,5-trichlorophenyl)but-1-en-1-yl)benzamide] | A (50-100)
O=C(NC1CCN(C(=O)CC(F)(F)F)CC1)c1ccc(/C=C/C(c2cc(Cl)c(Cl)c(Cl)c2)C(F)(F)F)cc1Br (stereo not drawn) [AC104, (E)-2-Bromo-4-(4,4,4-trifluoro-3-(3,4,5-trichlorophenyl)but-1-en-1-yl)-N-(1-(3,3,3-trifluoropropanoyl)piperidin-4-yl)benzamide] | A (50-100)
CN1CCC(NC(=O)c2ccc(/C=C/C(c3cc(Cl)c(Cl)c(Cl)c3)C(F)(F)F)cc2Br)CC1 (stereo not drawn) [AC106, (E)-2-Bromo-N-(1-methylpiperidin-4-yl)-4-(4,4,4-trifluoro-3-(3,4,5-trichlorophenyl)but-1-en-1-yl)benzamide] | A (50-100)
N#CCN1CCC(NC(=O)c2ccc(/C=C/C(c3cc(Cl)c(Cl)c(Cl)c3)C(F)(F)F)cc2Br)CC1 (stereo not drawn) [AC107] | B (More than 0-Less than 50)
O=C(NC1CCN(C2COC2)CC1)c1ccc(/C=C/C(c2cc(Cl)c(Cl)c(Cl)c2)C(F)(F)F)cc1Br (stereo not drawn) [AC108] | B (More than 0-Less than 50)
CONC(=O)CNC(=O)c1ccc(/C=C/C(c2cc(Cl)c(Cl)c(Cl)c2)C(F)(F)F)cc1Br (stereo not drawn) [AC110] | A (50-100)
C=CCNC(=O)CNC(=O)c1ccc(/C=C/C(c2cc(Cl)c(Cl)c(Cl)c2)C(F)(F)F)cc1Br (stereo not drawn) [AC111] | A (50-100)
O=C(NCCc1ccc(Cl)nc1)c1ccc(/C=C/C(c2cc(Cl)c(Cl)c(Cl)c2)C(F)(F)F)cc1Br (stereo not drawn) [AC113] | B (More than 0-Less than 50)
O=C(NC1CCNCC1)c1ccc(/C=C/C(c2cc(Cl)c(Cl)c(Cl)c2)C(F)(F)F)cc1Br (stereo not drawn) [AC114, (E)-2-Bromo-N-(piperidin-4-yl)-4-(4,4,4-trifluoro-3-(3,4,5-trichlorophenyl)but-1-en-1-yl)benzamide] | A (50-100)
Cc1cc(/C=C/C(c2cc(Cl)cc(Cl)c2)C(F)(F)F)ccc1C(=S)NCc1ccc(Cl)nc1 (stereo not drawn) [AC115, (E)-N-((6-Chloropyridin-3-yl)methyl)-4-(3-(3,5-dichlorophenyl)-4,4,4-trifluorobut-1-en-1-yl)-2-methylbenzothioamide] | A (50-100)
Cc1cc(/C=C/C(c2cc(Cl)cc(Cl)c2)C(F)(F)F)ccc1C(=O)N(C)Cc1ccc(Cl)nc1 (stereo not drawn) [AC117] | A (50-100)
Cc1cc(/C=C/C(c2cc(Cl)cc(Cl)c2)C(F)(F)F)ccc1C(=O)NCC1CCCO1 (stereo not drawn) [AC118] | A (50-100)
O=C(CC(F)(F)F)NC1CCCc2cc(/C=C/C(c3cc(Cl)c(Cl)c(Cl)c3)C(F)(F)F)ccc21 (stereo not drawn) [BC5] | A (50-100)
O=C(NC1CCc2cc(/C=C/C(c3cc(Cl)c(Cl)c(Cl)c3)C(F)(F)F)ccc21)C1CC1 (stereo not drawn) [BC6] | A (50-100)
O=C(NC1CCCc2cc(/C=C/C(c3cc(Cl)c(Cl)c(Cl)c3)C(F)(F)F)ccc21)C1CC1 (stereo not drawn) [BC7] | A (50-100)
O=C(CC(F)(F)F)NC1CCc2cc(/C=C/C(c3cc(Cl)c(F)c(Cl)c3)C(F)(F)F)ccc21 (stereo not drawn) [BC8] | A (50-100)
